One test addresses T1, AuroraA-TPX2 (Homo sapiens, UniProt O14965).
T1 construct: 20 μL of AuroraA-TPX2 KD GST for a final volume of about 41 μL; GST
T1 sequence (O14965 133-383 limits assumed): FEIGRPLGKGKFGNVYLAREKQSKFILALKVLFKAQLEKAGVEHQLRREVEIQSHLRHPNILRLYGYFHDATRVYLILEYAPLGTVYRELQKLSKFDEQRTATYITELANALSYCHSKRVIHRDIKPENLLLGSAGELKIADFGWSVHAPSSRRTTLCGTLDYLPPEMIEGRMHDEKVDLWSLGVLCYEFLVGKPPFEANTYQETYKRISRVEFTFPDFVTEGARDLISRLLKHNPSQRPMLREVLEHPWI
T1 sequence (Q9ULW0 1-43 partner limits assumed): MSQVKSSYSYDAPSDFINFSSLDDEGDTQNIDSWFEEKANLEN
Description: AuroraA-TPX2 Homogeneous Time Resolved Fluorescent (HTRF) kinase assay. In kind it is biochemical. To be noted: average; read-out: AurA_IC50_IP (uM Avg). The gist of the method:
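HTRF read-out (Eu 615 nm to APC 655 nm) of phosphorylated biotin-PLK, detected with 0.02 nM europium anti-phosphoPLK antibody and 0.0005 mg/mL SA-APC after overnight equilibration.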
A general note: In TR-FRET formats the signal depends on donor and acceptor labels being close together.

The next test concerns the target T2, AuroraB (Homo sapiens, UniProt Q96GD4).
T2 construct: 20 μL of AuroraB FL H is for a final volume of 41 μL; His
Nature of the test: AuroraB Homogeneous Time Resolved Fluorescent (HTRF) kinase assay. The conditions noted are these: average; read-out: AurB_IC50_IP (uM Avg). In kind it is biochemical. The gist of the method: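 Read-out is time-resolved FRET between europium anti-phospho-H3 antibody and streptavidin-APC, added in EDTA buffer to stop the reaction and equilibrated about 60 min (ex 320, em 615 and 655 nm). Preceding reaction: ~90 min, full-length enzyme, ATP, 0.1 μM biotin-Histone H3 substrate, Mg/Mn HEPES buffer pH 7.5.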

Each structure is given as a SMILES string.

T2 sequence (Q96GD4 whole entry): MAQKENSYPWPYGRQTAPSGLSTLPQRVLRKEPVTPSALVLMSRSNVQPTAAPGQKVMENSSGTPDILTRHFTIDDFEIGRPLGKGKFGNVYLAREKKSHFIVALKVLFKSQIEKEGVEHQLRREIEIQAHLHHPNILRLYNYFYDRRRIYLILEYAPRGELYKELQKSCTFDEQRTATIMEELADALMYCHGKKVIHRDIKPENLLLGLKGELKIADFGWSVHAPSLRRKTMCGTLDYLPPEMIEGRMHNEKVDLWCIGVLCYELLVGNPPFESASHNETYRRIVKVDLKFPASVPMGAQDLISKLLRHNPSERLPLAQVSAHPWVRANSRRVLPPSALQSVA

Turning to `COc1cc2nccc(Oc3ccc(Nc4nnc(-c5cc(C)ccn5)c5ccccc45)cc3)c2cc1OC` [compound 117, N-(4-((6,7-bis(methyloxy)-4-quinolinyl)oxy)phenyl)-4-(4-methyl-2-pyridinyl)-1-phthalazinamine], the IC50 turned out to be 0.057 µM on AuroraA-TPX2 and 0.043 µM on AuroraB.
The corresponding values for `COc1ccc2c(Oc3ccc(Nc4nnc(-c5cc(C)ccn5)c5ccccc45)cc3)ccnc2c1` [compound 118, N-(4-((7-(methyloxy)-4-quinolinyl)oxy)phenyl)-4-(4-methyl-2-pyridinyl)-1-phthalazinamine] are 0.136 µM and 0.009 µM.
Turning to `COc1ccccc1-c1nnc(Nc2ccc(Oc3ccnc4cc(C#N)ccc34)cc2)c2ccccc12` [compound 119, 4-((4-((4-(2-(methyloxy)phenyl)-1-phthalazinyl)amino)phenyl)oxy)-7-quinolinecarbonitrile], the IC50 stood at 0.175 µM at AuroraA-TPX2 and 0.007 µM on AuroraB.
The corresponding values for `COCc1cccc(-c2nnc(Nc3ccc(Oc4ccnc5cc(OC)cnc45)cc3)c3ccccc23)n1` [compound 120, 4-(6-((methyloxy)methyl)-2-pyridinyl)-N-(4-((7-(methyloxy)-1,5-naphthyridin-4-yl)oxy)phenyl)-1-phthalazinamine] are 0.019 µM and 0.003 µM.
For `COc1cc2nccc(Oc3ccc(Nc4nnc(-c5cc(C)ccn5)c5ccccc45)cc3)c2cn1` [compound 121, N-(4-((7-(methyloxy)-1,6-naphthyridin-4-yl)oxy)phenyl)-4-(4-methyl-2-pyridinyl)-1-phthalazinamine] the same measures were 0.041 µM and 0.007 µM.
Consider `Cc1ccc(-c2nnc(Nc3ccc(Oc4ccnc5cc(C#N)ccc45)cc3)c3ccccc23)nc1` [compound 122, 4-((4-((4-(5-methyl-2-pyridinyl)-1-phthalazinyl)amino)phenyl)oxy)-7-quinolinecarbonitrile], for which the IC50 at AuroraA-TPX2 stood at 0.022 µM; at AuroraB, 0.003 µM.
For `COc1cc2ncnc(Oc3ccc(Nc4nnc(-c5cc(C)ccn5)c5ccccc45)cc3)c2cc1OC` [compound 123, N-(4-((6,7-bis(methyloxy)-4-quinazolinyl)oxy)phenyl)-4-(4-methyl-2-pyridinyl)-1-phthalazinamine] the same measures were 0.132 µM and 0.015 µM.
With `COc1cc2nccc(Nc3ccc(Nc4nnc(-c5ccccc5)c5ccccc45)cc3)c2cn1` [compound 124, N-(7-(methyloxy)-1,6-naphthyridin-4-yl)-N′-(4-phenyl-1-phthalazinyl)-1,4-benzenediamine], the IC50 was determined as 0.042 µM on AuroraA-TPX2 and 0.002 µM at AuroraB.
For `COc1cnc2c(Oc3ccc(Nc4nnc(-c5ccc(C)cn5)c5ccccc45)cc3)ccnc2c1` [compound 125, N-(4-((7-(methyloxy)-1,5-naphthyridin-4-yl)oxy)phenyl)-4-(5-methyl-2-pyridinyl)-1-phthalazinamine] the same measures were 0.018 µM and 0.003 µM.
Consider `COc1cnc2c(Oc3ccc(Cc4nnc(-c5ccc(C)cc5)c5ccccc45)cc3)ccnc2c1` [compound 126, 3-(methyloxy)-8-((4-((4-(4-methylphenyl)-1-phthalazinyl)methyl)phenyl)oxy)-1,5-naphthyridine], for which the IC50 was determined as 0.388 µM at AuroraA-TPX2 and 0.017 µM at AuroraB.
The corresponding values for `COc1cc2nccc(Oc3ccc(Nc4nnc(-c5cccc(C)n5)c5ccccc45)cn3)c2cn1` [compound 127, N-(6-((7-(methyloxy)-1,6-naphthyridin-4-yl)oxy)-3-pyridinyl)-4-(6-methyl-2-pyridinyl)-1-phthalazinamine] are 0.241 µM and 0.009 µM.
For `COc1cnc2c(Oc3ccc(Nc4nnc(-c5cccc(C)n5)c5ccccc45)cn3)ccnc2c1` [compound 128, N-(6-((7-(methyloxy)-1,5-naphthyridin-4-yl)oxy)-3-pyridinyl)-4-(6-methyl-2-pyridinyl)-1-phthalazinamine] the same measures were 0.099 µM and 0.018 µM.

For the origin of these results see patent publication US8557816B2, “Aurora kinase modulators and method of use” (Amgen Inc., priority 2007, dated 2013).
